Key:
Assay type in all cases: in vivo
[1] = system: Amaranthus viridis; assay: Herbicidal effect test by treatment of stem and leaf in dry field farming (Test Example 4); conditions: 120 g/10 a, stem and leaf treatment seven days after seeding, 14 days after treatment
Description: (§1) Herbicidal Rate (%)={1−(Average Dry Weight (g) of Plant of Treated Area)/(Average Dry Weight (g) of Plant of Untreated Area)}×100 [Math. 1] Pots with a size of 36 cm^2 were filled with a dry field farming soil (alluvium). The soil of the top layer of 1 cm and seeds of weeds, namely southern crabgrass, Echinochloa crus-galli, Chenopodium album and Amaranthus viridis, 20 seeds each, were evenly mixed, and the top layer was gently pressed. Emulsions prepared using the compounds in Table 6 below according to Formulation Example 5 were diluted with water seven days after seeding, and the water-diluted agent solutions were sprayed to the soil surfaces at a ratio of 100 liters per 10 ares. A converted amount of the applied active ingredient corresponded to 120 g per 10 ares. The herbicidal effects were evaluated by the same standard as that in Test Example 1, 14 days after the treatment with the agents. In this regard, the compound numbers in Table 6 are the same as those in Table 1 and Table 2 above.

[2] = system: Chenopodium album; assay: as above; conditions: 120 g/10 a, stem and leaf treatment seven days after seeding, 14 days after treatment
Description: as §1

[3] = system: southern crabgrass; assay: as above; conditions: 120 g/10 a, stem and leaf treatment seven days after seeding, 14 days after treatment
Description: as §1

[4] = system: Echinochloa crus-galli; assay: as above; conditions: 120 g/10 a, stem and leaf treatment seven days after seeding, 14 days after treatment
Description: as §1

[5] = system: Amaranthus viridis; assay: Herbicidal effect test by treatment of dry field farming soil (Test Example 3); conditions: 120 g/10 a, sprayed one day after seeding, 14 days after treatment
Description: as §1, with “Table 5” for “Table 6”, “water one day” for “water seven days”

[6] = system: Chenopodium album; assay: as above; conditions: 120 g/10 a, sprayed one day after seeding, 14 days after treatment
Description: as §1, with “Table 5” for “Table 6”, “water one day” for “water seven days”

[7] = system: southern crabgrass; assay: as above; conditions: 120 g/10 a, sprayed one day after seeding, 14 days after treatment
Description: as §1, with “Table 5” for “Table 6”, “water one day” for “water seven days”

[8] = system: Echinochloa crus-galli; assay: as above; conditions: 120 g/10 a, sprayed one day after seeding, 14 days after treatment
Description: as §1, with “Table 5” for “Table 6”, “water one day” for “water seven days”

[9] = system: Scirpus juncoides; assay: Herbicidal effect test by treatment during growing period in paddy rice cultivation (Test Example 2); conditions: 120 g/10 a, treated seven days after seeding, 14 days after treatment
Description: (§2) Herbicidal Rate (%)={1−(Average Dry Weight (g) of Plant of Treated Area)/(Average Dry Weight (g) of Plant of Untreated Area)}×100 [Math. 1]
(§3) Wagner pots with an area of 1/10000 ares were filled with a paddy soil, and a compound fertilizer (N:P:K=17:17:17) was mixed after addition of water, followed by soil puddling. Then, Echinochloa crus-galli, broad leaf weeds (Lindernia pyxidaria and Monochoria vaginalis) and Scirpus juncoides, 30 seeds each, were sown in a depth of 0 to 1 cm. Water was poured immediately after seeding, and the water depth was kept at about 3 cm. A subsequent management was conducted in a glass greenhouse. Emulsions prepared using the compounds in Table 4 below according to Formulation Example 5 were diluted with water seven days after seeding, and a certain amount of the water-diluted agent solutions were dropped. A converted amount of the applied active ingredient corresponded to 120 g per 10 ares. The test was conducted in a double system per one agent solution concentration area, and the herbicidal rates (%) were determined by the equation (Math. 1) 14 days after the treatment with the agents. In this regard, the compound numbers in Table 4 are the same as those in Table 1 and Table 2 above.

[10] = system: Echinochloa crus-galli; assay: as above; conditions: 120 g/10 a, treated seven days after seeding, 14 days after treatment
Description: as §2, §3

[11] = system: Lindernia pyxidaria; assay: as above; conditions: 120 g/10 a, treated seven days after seeding, 14 days after treatment
Description: as §2, §3

[12] = system: Monochoria vaginalis; assay: as above; conditions: 120 g/10 a, treated seven days after seeding, 14 days after treatment
Description: as §2, §3

[13] = system: Scirpus juncoides; assay: Herbicidal effect test by treatment of rice paddy soil (Test Example 1); conditions: 120 g/10 a, treated immediately after seeding, 14 days after treatment
Description: (§4) Wagner pots with an area of 1/10000 ares were filled with a paddy soil, and a compound fertilizer (N:P:K=17:17:17) was mixed after water was added, followed by soil puddling. Then, Echinochloa crus-galli, broad leaf weeds (Lindernia pyxidaria and Monochoria vaginalis) and Scirpus juncoides, 30 seeds each, were sown in a depth of 0 to 1 cm. Water was poured immediately after seeding, and the water depth was kept at about 3 cm. A subsequent management was conducted in a glass greenhouse. Immediately after that, emulsions prepared using the compounds in Table 3 below according to Formulation Example 5 were diluted with water, and a certain amount of the water-diluted agent solutions were dropped. A converted amount of the applied active ingredient corresponded to 120 g per 10 ares.
(§5) This test was conducted in a double system per one agent solution concentration area, and the herbicidal rates (%) were determined by the following equation (Math. 1) 14 days after the treatment with the agents.
as §2

[14] = system: Echinochloa crus-galli; assay: as above; conditions: 120 g/10 a, treated immediately after seeding, 14 days after treatment
Description: as §4, §5, §2

[15] = system: Lindernia pyxidaria; assay: as above; conditions: 120 g/10 a, treated immediately after seeding, 14 days after treatment
Description: as §4, §5, §2

[16] = system: Monochoria vaginalis; assay: as above; conditions: 120 g/10 a, treated immediately after seeding, 14 days after treatment
Description: as §4, §5, §2

## COC1CCCC1n1oc(=O)c(Cc2ccccc2N(C(=O)C(C)C)S(=O)(=O)C(F)(F)F)c1C (stereo not shown) [Compound 113]
[1]
  Herbicidal rate, Amaranthus viridis: 90%
[2]
  Herbicidal rate, Chenopodium album: 90%
[3]
  Herbicidal rate, southern crabgrass: 80%
[4]
  Herbicidal rate, Echinochloa crus-galli: 90%
[5]
  Herbicidal rate, Amaranthus viridis: 60%
[6]
  Herbicidal rate, Chenopodium album: 60%
[7]
  Herbicidal rate, southern crabgrass: 90%
[8]
  Herbicidal rate, Echinochloa crus-galli: 90%
[9]
  Herbicidal rate, Scirpus juncoides: 90%
[10]
  Herbicidal rate, Echinochloa crus-galli: 100%
[11]
  Herbicidal rate, Lindernia pyxidaria: 80%
[12]
  Herbicidal rate, Monochoria vaginalis: 90%
[13]
  Herbicidal rate, Scirpus juncoides: 100%
[14]
  Herbicidal rate, Echinochloa crus-galli: 100%
[15]
  Herbicidal rate, Lindernia pyxidaria: 100%
[16]
  Herbicidal rate, Monochoria vaginalis: 100%

## COC1CCCCC1n1oc(=O)c(Cc2ccccc2N(C(=O)Oc2ccccc2)S(=O)(=O)C(F)(F)F)c1C (single isomer, unassigned) [Compound 288]
[1]
  Herbicidal rate, Amaranthus viridis: 90%
[2]
  Herbicidal rate, Chenopodium album: 90%
[3]
  Herbicidal rate, southern crabgrass: 90%
[4]
  Herbicidal rate, Echinochloa crus-galli: 90%
[5]
  Herbicidal rate, Amaranthus viridis: 40%
[6]
  Herbicidal rate, Chenopodium album: 60%
[7]
  Herbicidal rate, southern crabgrass: 90%
[8]
  Herbicidal rate, Echinochloa crus-galli: 90%
[9]
  Herbicidal rate, Scirpus juncoides: 90%
[10]
  Herbicidal rate, Echinochloa crus-galli: 100%
[11]
  Herbicidal rate, Lindernia pyxidaria: 90%
[12]
  Herbicidal rate, Monochoria vaginalis: 90%
[13]
  Herbicidal rate, Scirpus juncoides: 100%
[14]
  Herbicidal rate, Echinochloa crus-galli: 100%
[15]
  Herbicidal rate, Lindernia pyxidaria: 100%
[16]
  Herbicidal rate, Monochoria vaginalis: 100%

## COC1CCCCC1n1oc(=O)c(Cc2ccccc2N(C(=O)OCC(C)C)S(=O)(=O)C(F)(F)F)c1C (stereo not shown) [Compound 250]
[1]
  Herbicidal rate, Amaranthus viridis: 90%
[2]
  Herbicidal rate, Chenopodium album: 90%
[3]
  Herbicidal rate, southern crabgrass: 90%
[4]
  Herbicidal rate, Echinochloa crus-galli: 90%
[5]
  Herbicidal rate, Amaranthus viridis: 90%
[6]
  Herbicidal rate, Chenopodium album: 60%
[7]
  Herbicidal rate, southern crabgrass: 90%
[8]
  Herbicidal rate, Echinochloa crus-galli: 90%
[9]
  Herbicidal rate, Scirpus juncoides: 90%
[10]
  Herbicidal rate, Echinochloa crus-galli: 100%
[11]
  Herbicidal rate, Lindernia pyxidaria: 90%
[12]
  Herbicidal rate, Monochoria vaginalis: 90%
[13]
  Herbicidal rate, Scirpus juncoides: 100%
[14]
  Herbicidal rate, Echinochloa crus-galli: 100%
[15]
  Herbicidal rate, Lindernia pyxidaria: 100%
[16]
  Herbicidal rate, Monochoria vaginalis: 100%

## COC1CCCC1n1oc(=O)c(Cc2ccccc2N(C(C)=O)S(=O)(=O)C(F)(F)F)c1C (stereo not shown) [Compound 107, N-[2-[[(2-methoxycyclopentyl)-3-methyl-5-oxoisoxazol-4-yl]methyl]phenyl]-N-(trifluoromethylsulfonyl)acetamide]
[1]
  Herbicidal rate, Amaranthus viridis: 90%
[2]
  Herbicidal rate, Chenopodium album: 90%
[3]
  Herbicidal rate, southern crabgrass: 80%
[4]
  Herbicidal rate, Echinochloa crus-galli: 90%
[5]
  Herbicidal rate, Amaranthus viridis: 60%
[6]
  Herbicidal rate, Chenopodium album: 60%
[7]
  Herbicidal rate, southern crabgrass: 90%
[8]
  Herbicidal rate, Echinochloa crus-galli: 90%
[9]
  Herbicidal rate, Scirpus juncoides: 90%
[10]
  Herbicidal rate, Echinochloa crus-galli: 100%
[11]
  Herbicidal rate, Lindernia pyxidaria: 80%
[12]
  Herbicidal rate, Monochoria vaginalis: 90%
[13]
  Herbicidal rate, Scirpus juncoides: 100%
[14]
  Herbicidal rate, Echinochloa crus-galli: 100%
[15]
  Herbicidal rate, Lindernia pyxidaria: 100%
[16]
  Herbicidal rate, Monochoria vaginalis: 100%

## COC1CCCCC1n1oc(=O)c(Cc2ccccc2NS(=O)(=O)C(F)(F)F)c1C (stereo not shown) [Compound 62, 1,1,1-trifluoro-N-[2-[[(2-methoxycyclohexyl)-3-methyl-5-oxoisoxazol-4-yl]methyl]phenyl]methanesulfonamide]
[1]
  Herbicidal rate, Amaranthus viridis: 90%
[2]
  Herbicidal rate, Chenopodium album: 90%
[3]
  Herbicidal rate, southern crabgrass: 90%
[4]
  Herbicidal rate, Echinochloa crus-galli: 90%
[5]
  Herbicidal rate, Amaranthus viridis: 60%
[6]
  Herbicidal rate, Chenopodium album: 60%
[7]
  Herbicidal rate, southern crabgrass: 90%
[8]
  Herbicidal rate, Echinochloa crus-galli: 90%
[9]
  Herbicidal rate, Scirpus juncoides: 90%
[10]
  Herbicidal rate, Echinochloa crus-galli: 100%
[11]
  Herbicidal rate, Lindernia pyxidaria: 80%
[12]
  Herbicidal rate, Monochoria vaginalis: 90%
[13]
  Herbicidal rate, Scirpus juncoides: 100%
[14]
  Herbicidal rate, Echinochloa crus-galli: 100%
[15]
  Herbicidal rate, Lindernia pyxidaria: 100%
[16]
  Herbicidal rate, Monochoria vaginalis: 100%

## COC1CCCC1n1oc(=O)c(Cc2ccccc2N(S(=O)(=O)C(F)(F)F)S(=O)(=O)C(F)(F)F)c1C (stereo not shown) [Compound 349, 1,1,1-trifluoro-N-[2-[[(2-methoxycyclopentyl)-3-methyl-5-oxoisoxazol-4-yl]methyl]phenyl]-N-(trifluoromethylsulfonyl)methanesulfonamide]
[1]
  Herbicidal rate, Amaranthus viridis: 80%
[2]
  Herbicidal rate, Chenopodium album: 80%
[3]
  Herbicidal rate, southern crabgrass: 80%
[4]
  Herbicidal rate, Echinochloa crus-galli: 90%
[5]
  Herbicidal rate, Amaranthus viridis: 90%
[6]
  Herbicidal rate, Chenopodium album: 60%
[7]
  Herbicidal rate, southern crabgrass: 90%
[8]
  Herbicidal rate, Echinochloa crus-galli: 90%
[9]
  Herbicidal rate, Scirpus juncoides: 90%
[10]
  Herbicidal rate, Echinochloa crus-galli: 100%
[11]
  Herbicidal rate, Lindernia pyxidaria: 80%
[12]
  Herbicidal rate, Monochoria vaginalis: 80%
[13]
  Herbicidal rate, Scirpus juncoides: 90%
[14]
  Herbicidal rate, Echinochloa crus-galli: 100%
[15]
  Herbicidal rate, Lindernia pyxidaria: 100%
[16]
  Herbicidal rate, Monochoria vaginalis: 100%

## CCOC(=O)N(c1ccccc1Cc1c(C)n(C2CCCCC2OC)oc1=O)S(=O)(=O)C(F)(F)F (stereo not shown) [Compound 190, ethyl N-[2-[[(2-methoxycyclohexyl)-3-methyl-5-oxoisoxazol-4-yl]methyl]phenyl]-N-(trifluoromethylsulfonyl)carbamate]
[1]
  Herbicidal rate, Amaranthus viridis: 90%
[2]
  Herbicidal rate, Chenopodium album: 90%
[3]
  Herbicidal rate, southern crabgrass: 90%
[4]
  Herbicidal rate, Echinochloa crus-galli: 90%
[5]
  Herbicidal rate, Amaranthus viridis: 90%
[6]
  Herbicidal rate, Chenopodium album: 60%
[7]
  Herbicidal rate, southern crabgrass: 90%
[8]
  Herbicidal rate, Echinochloa crus-galli: 90%
[9]
  Herbicidal rate, Scirpus juncoides: 90%
[10]
  Herbicidal rate, Echinochloa crus-galli: 100%
[11]
  Herbicidal rate, Lindernia pyxidaria: 80%
[12]
  Herbicidal rate, Monochoria vaginalis: 90%
[13]
  Herbicidal rate, Scirpus juncoides: 100%
[14]
  Herbicidal rate, Echinochloa crus-galli: 100%
[15]
  Herbicidal rate, Lindernia pyxidaria: 100%
[16]
  Herbicidal rate, Monochoria vaginalis: 100%
